Experimental data reported in US8071551B2, “Methods and compositions for treating diabetes” (BioHolding, Inc., priority 1999, dated 2011).

Tests used:
[1] = tested on: RCG Neuron (rat cerebral granule) cells; assay: Apoptosis induced by depletion of serum in RCG neuron cells (Hoechst 33258 staining, fluorescence microscope); type: cell-based; conditions: BME without serum, 10 hours, Hoechst dye 33258
Procedure: RCG neuronal cells are seeded into cell culture dishes in 400 μl cell culture medium (Eagle's basal medium, BME) containing 10% (v/v) FBS. At day two the now conditioned medium is removed and the cells are treated for 10 hours as follows:
Then the medium is replaced with 4% (w/v) paraformaldehyde, incubated for 15 minutes at room temperature, and the cells stained with Hoechst dye 33258 (8 μg/ml) for 15 minutes at room temperature. The apoptosis in the cells is evaluated using a fluorescence microscope by an evaluator blinded to the method of treatment.

[2] = tested on: Primary rat brain granule cells; assay: Apoptosis associated with serum depletion in primary rat brain granule cells; type: cell-based; conditions: α1-antitrypsin 3.0 mg/ml, one hour pretreatment, medium devoid of fetal bovine serum, 24 hours of culture
Procedure: Primary rat brain granule cells are pretreated for one hour in the absence or presence of α1-antitrypsin (3.0 mg/ml), followed by replacement of the cell culture medium with either control medium containing 10% (vol/vol) fetal bovine serum, medium devoid of fetal bovine serum, or medium devoid of fetal bovine serum but containing α1-antitrypsin.

## Cc1cccc(Cc2nnc(C(=O)[C@@H](NC(=O)[C@@H]3CCCN3C(=O)[C@@H](NC(=O)OCc3ccccc3)C(C)C)C(C)C)o2)c1 [CE-2072, benzyloxcarbonyl-L-valyl-N-[1-(2-[5-(3-methylbenzyl)-1,3,4-oxadiazolyl]carbonyl)-2-(S)-Methylpropyl]-L-prolinamide, reference compound]
[1]; CE-2072 60 μM in DMSO
  apoptosis induced by depletion of serum: blocked

## lyophilized α1-antitrypsin: lyophilized preparation of the serine protease inhibitor α1-antitrypsin
[1]; lyophilized AAT 50 μM
  apoptosis induced by depletion of serum: blocked

## α1-Antitrypsin: serine protease inhibitor α1-antitrypsin
[2]
  apoptosis associated with serum depletion: completely reverses
